The numbers were not newly measured in patent publication EP1964550A1, “Glucocorticoid-nitrooxyderivative compositions” (NicOx S.A., priority 2007, dated 2008), which cites them from elsewhere.

The structures appear in SMILES notation.

The data set relates to irritant acute dermatitis. The conditions noted are these: oedema formation and recruitment of leukocytes evaluated; compared with parent compound hydrocortisone.

With `C[C@]12CCC(=O)C=C1CC[C@@H]1[C@@H]2[C@@H](O)C[C@@]2(C)[C@H]1CC[C@]2(O)C(=O)COC(=O)c1ccc(CO[N+](=O)[O-])cc1` [hydrocortisone 21-[4'-(nitrooxymethyl)benzoate]], the anti-inflammatory activity entry is “higher anti-inflammatory activity than the parent compound hydrocortisone”.
